Results published in patent US9045498B2, “Hexahydropyrano[3,4-d][1,3]thiazin-2-amine compounds” (Pfizer Inc., priority 2012, dated 2015).

How the values were obtained:
BACE1 enzyme = BACE1 enzyme (Homo sapiens (Human), UniProt P56817); assay: BACE1 Cell-Free Assay (fluorescence polarization); type: biochemical; details: geometric mean of 2-3 determinations; pH 4.5, 3 hours at 37° C.
Excerpt: This assay measures the inhibition of the beta-secretase enzyme as it cleaves a non-native peptide.
A synthetic APP substrate that can be cleaved by beta-secretase having N-terminal biotin and made fluorescent by the covalent attachment of Oregon Green at the Cys residue is used to assay beta-secretase activity in the presence or absence of the inhibitory compounds. […] The BACE1 enzyme is affinity purified material from conditioned media of CHO-K1 cells that have been transfected with a soluble BACE construct (BACE1deltaTM96His). Compounds are incubated in a ½ log dose response curve from a top concentration of 100 μM with BACE1 enzyme and the biotinylated fluorescent peptide in 384-well black plates (Thermo Scientific #4318). BACE1 is at a final concentration of 0.1 nM with a final concentration of peptide substrate of 150 nM in a reaction volume of 30 μL assay buffer (100 mM sodium acetate, pH 4.5 (brought to pH with acetic acid), and 0.001% Tween-20). Plates are covered and incubated for 3 hours at 37° C. The reaction is stopped with the addition of 30 μL of 1.5 μM Streptavidin (Pierce, #21125). After a 10 minute incubation at room temperature, plates are read on a PerkinElmer EnVision for fluorescence polarization (Ex485 nm/Em530 nm). The activity of the beta-secretase enzyme is detected by changes in the fluorescence polarization that occur when the substrate is cleaved by the enzyme.

[1] = test system: sAPPβ levels in H4 human neuroglioma cells over-expressing the wild-type human APP695; assay: Whole Cell Assay (In Vitro sAPPb Assay); type: cell-based; details: 18 hours treatment, geometric mean of 2-3 determinations (4-7 where marked d)
Method: Whole Cell Assay (In Vitro sAPPb Assay):
H4 human neuroglioma cells over-expressing the wild-type human APP695 are treated for 18 hours with compound in cell growth media having a final concentration 1% DMSO. sAPPβ levels are measured using either TMB-ELISA or Pierce SuperSignal ELISA Pico Chemiluminescent Substrate (Pierce 37069) with capture APP N-terminal antibody (Affinity BioReagents, OMA1-03132), wild-type sAPPβ specific reporter p192 (Elan), and tertiary anti rabbit-HRP (GE Healthcare).

BACE2 enzyme = BACE2 enzyme (Homo sapiens (Human), UniProt Q9Y5Z0); assay: BACE2 Cell-free Assay (fluorescence polarization); type: biochemical; details: pH 4.5, 3 hours at 37° C.; number of determinations per footnote a, b, d
Method: This assay measures the inhibition of the BACE2 enzyme as it cleaves a non-native peptide. A synthetic substrate that can be cleaved by BACE2 having N-terminal biotin and made fluorescent by the covalent attachment of Oregon Green at the Cys residue is used to assay BACE2 activity in the presence or absence of the inhibitory compounds. The substrate is Biotin-[…]-C(Oregon green)-KK-OH. The BACE2 enzyme is available from Enzo Life Sciences (Cat # BML-SE550). Compounds are incubated in a ½ log dose response curve from a top concentration of 100 μM with BACE2 enzyme and the biotinylated fluorescent peptide in 384-well black plates (Thermo Scientific #4318). BACE2 is at a final concentration of 2.5 nM with a final concentration of peptide substrate of 150 nM in a reaction volume of 30 μL assay buffer (100 mM sodium acetate, pH 4.5 (brought to pH with acetic acid), and 0.001% Tween-20). Plates are covered and incubated for 3 hours at 37° C. The reaction is stopped with the addition of 30 μL of 1.5 μM Streptavidin (Pierce, #21125). After a 10 minute incubation at room temperature, plates are read on a Perkin Elmer EnVision for fluorescence polarization (Ex485 nm/Em530 nm). The activity of the beta-secretase enzyme is detected by changes in the fluorescence polarization that occur when the substrate is cleaved by the enzyme.

Sequence of BACE1 enzyme (P56817 46-457): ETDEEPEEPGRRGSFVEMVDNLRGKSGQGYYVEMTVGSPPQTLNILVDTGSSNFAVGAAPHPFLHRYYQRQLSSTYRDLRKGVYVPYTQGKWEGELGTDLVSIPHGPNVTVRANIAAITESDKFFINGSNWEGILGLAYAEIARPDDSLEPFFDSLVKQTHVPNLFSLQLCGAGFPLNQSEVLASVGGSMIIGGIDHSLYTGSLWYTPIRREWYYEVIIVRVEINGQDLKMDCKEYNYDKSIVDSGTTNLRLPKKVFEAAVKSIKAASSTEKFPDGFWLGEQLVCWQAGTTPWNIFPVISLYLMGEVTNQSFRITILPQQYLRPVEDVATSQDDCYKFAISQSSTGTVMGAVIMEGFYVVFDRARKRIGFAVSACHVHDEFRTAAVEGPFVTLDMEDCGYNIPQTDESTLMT
Sequence of BACE2 enzyme (Q9Y5Z0 63-518): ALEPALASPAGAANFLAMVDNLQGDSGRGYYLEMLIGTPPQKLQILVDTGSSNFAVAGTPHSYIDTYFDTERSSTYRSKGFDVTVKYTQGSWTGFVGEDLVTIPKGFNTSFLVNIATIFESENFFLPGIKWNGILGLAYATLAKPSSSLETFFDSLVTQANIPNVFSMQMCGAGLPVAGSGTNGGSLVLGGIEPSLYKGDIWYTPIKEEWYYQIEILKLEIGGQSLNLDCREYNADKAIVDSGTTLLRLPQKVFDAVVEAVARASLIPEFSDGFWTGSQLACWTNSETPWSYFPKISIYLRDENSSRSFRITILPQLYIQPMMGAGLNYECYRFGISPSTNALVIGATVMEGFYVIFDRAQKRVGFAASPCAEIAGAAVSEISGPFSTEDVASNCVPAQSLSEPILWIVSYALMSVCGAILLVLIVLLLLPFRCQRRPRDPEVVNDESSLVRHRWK

Compound | IC50 (BACE1 enzyme) [nM] | IC50 [1] [nM] | IC50 (BACE2 enzyme) [nM]
Cn1cc([C@H]2C[C@H]3CSC(N)=N[C@@]3(c3cc(CNCC(F)(F)F)ccc3F)CO2)cn1 (relative stereo) [Example 16, rel-(4aR,6R,8aS)-8a-(2-Fluoro-5-{[(2,2,2-trifluoroethyl)amino]methyl}phenyl)-6-(1-methyl-1H-pyrazol-4-yl)-4,4a,5,6,8,8a-hexahydropyrano[3,4-d][1,3]thiazin-2-amine] | 19 | 1.88 | 108
COC[C@@H](C)NCc1ccc(F)c([C@]23CO[C@@H](c4cnn(C)c4)C[C@H]2CSC(N)=N3)c1 (relative stereo) [Example 18, (4aR*,6R*,8aS*)-8a-[2-Fluoro-5-({[(2R)-1-methoxypropan-2-yl]amino}methyl)phenyl]-6-(1-methyl-1H-pyrazol-4-yl)-4,4a,5,6,8,8a-hexahydropyrano[3,4-d][1,3]thiazin-2-amine] | 36 | 0.545 | 20
COc1cc(F)c([C@]23CO[C@@H](COCc4ccccc4)C[C@H]2CSC(N)=N3)cc1C#N [Example 1, 5-[(4aR,6R,8aS)-2-Amino-6-[(benzyloxy)methyl]-4,4a,5,6-tetrahydropyrano[3,4-d][1,3]thiazin-8a(8H)-yl]-4-fluoro-2-methoxybenzonitrile] | 1220 | 53.5 | 
N#Cc1cc([C@]23CO[C@@H](COCc4ccccc4)C[C@H]2CSC(N)=N3)c(F)cc1F [Example 2, 5-[(4aR,6R,8aS)-2-Amino-6-[(benzyloxy)methyl]-4,4a,5,6-tetrahydropyrano[3,4-d][1,3]thiazin-8a(8H)-yl]-2,4-difluorobenzonitrile] | 445 | 74 | 
NC1=N[C@@]2(c3cc(CNCC(F)(F)F)ccc3F)CO[C@@H](CF)C[C@H]2CS1 [Example 15, (4aR,6R,8aS)-6-(Fluoromethyl)-8a-(2-fluoro-5-{[(2,2,2-trifluoroethyl)amino]methyl}phenyl)-4,4a,5,6,8,8a-hexahydropyrano[3,4-d][1,3]thiazin-2-amine] | 376 | 8.05 | 423
C[C@H]1C[C@H]2[C@@H](CF)SC(N)=N[C@@]2(c2cc(CNCC(F)(F)F)c(F)cc2F)CO1 [Example 20, (4S,4aR,6S,8aS)-8a-(2,4-Difluoro-5-{[(2,2,2-trifluoroethyl)amino]methyl}phenyl)-4-(fluoromethyl)-6-methyl-4,4a,5,6,8,8a-hexahydropyrano[3,4-d][1,3]thiazin-2-amine] | 68 | 35.7 | 
C[C@H]1C[C@H]2CSC(N)=N[C@@]2(c2cccc(C#N)c2)CO1 [Example 7, 3-[(4aR,6S,8aS)-2-Amino-6-methyl-4,4a,5,6-tetrahydropyrano[3,4-d][1,3]thiazin-8a(8H)-yl]benzonitrile] | 1780 | 119 | 
Cn1cc([C@H]2C[C@H]3CSC(N)=N[C@@]3(c3cc(C#N)ccc3F)CO2)cn1 [Example 12, 3-[(4aR,6R,8aS)-2-Amino-6-(1-methyl-1H-pyrazol-4-yl)-4,4a,5,6-tetrahydropyrano[3,4-d][1,3]thiazin-8a(8H)-yl]-4-fluorobenzonitrile] | 60 | 6.43 | 
C[C@H]1C[C@H]2[C@@H](CF)SC(N)=N[C@@]2(c2cc(CNCC(F)(F)F)ccc2F)CO1 [Example 19, (4S,4aR,6S,8aS)-4-(Fluoromethyl)-8a-(2-fluoro-5-{[(2,2,2-trifluoroethyl)amino]methyl}phenyl)-6-methyl-4,4a,5,6,8,8a-hexahydropyrano[3,4-d][1,3]thiazin-2-amine] | 150 | 30.4 | 
N#Cc1cc([C@]23CO[C@@H](CF)C[C@H]2CSC(N)=N3)c(F)cc1F [Example 4, 5-[(4aR,6R,8aS)-2-Amino-6-(fluoromethyl)-4,4a,5,6-tetrahydropyrano[3,4-d][1,3]thiazin-8a(8H)-yl]-2,4-difluorobenzonitrile] |  | 93 | 2520
C[C@H]1C[C@H]2CSC(N)=N[C@@]2(c2cc(C#N)ccc2Cl)CO1 [Example 6, 3-[(4aR,6S,8aS)-2-Amino-6-methyl-4,4a,5,6-tetrahydropyrano[3,4-d][1,3]thiazin-8a(8H)-yl]-4-chlorobenzonitrile] | 2330 | 195 | 
NC1=N[C@@]2(c3cc(CNCC(F)(F)F)c(F)cc3F)CO[C@@H](CF)C[C@H]2CS1 [Example 8, (4aR,6R,8aS)-8a-(2,4-Difluoro-5-{[(2,2,2-trifluoroethyl)amino]methyl}phenyl)-6-(fluoromethyl)-4,4a,5,6,8,8a-hexahydropyrano[3,4-d][1,3]thiazin-2-amine] |  | 5.9 | 
N#Cc1cc([C@]23CO[C@@H](CO)C[C@H]2CSC(N)=N3)c(F)cc1F [Example 3, 5-[(4aR,6R,8aS)-2-Amino-6-(hydroxymethyl)-4,4a,5,6-tetrahydropyrano[3,4-d][1,3]thiazin-8a(8H)-yl]-2,4-difluorobenzonitrile] | 5550 | 393 | 
COC[C@H]1C[C@H]2CSC(N)=N[C@@]2(c2cc(C#N)c(F)cc2F)CO1 [Example 5, 5-[(4aR,6R,8aS)-2-Amino-6-(methoxymethyl)-4,4a,5,6-tetrahydropyrano[3,4-d][1,3]thiazin-8a(8H)-yl]-2,4-difluorobenzonitrile] |  | 46.5 | 
C[C@H]1C[C@H]2CSC(N)=N[C@@]2(c2cc(CNCC(F)(F)F)c(F)cc2F)CO1 [Example 9, (4aR,6S,8aS)-8a-(2,4-Difluoro-5-{[(2,2,2-trifluoroethyl)amino]methyl}phenyl)-6-methyl-4,4a,5,6,8,8a-hexahydropyrano[3,4-d][1,3]thiazin-2-amine] | 76 | 8.94 | 
Cc1coc([C@H]2C[C@H]3CSC(N)=N[C@@]3(c3cc(C#N)ccc3F)CO2)n1 [Example 11, 3-[(4aR,6R,8aS)-2-Amino-6-(4-methyl-1,3-oxazol-2-yl)-4,4a,5,6-tetrahydropyrano[3,4-d][1,3]thiazin-8a(8H)-yl]-4-fluorobenzonitrile] | 107 | 12.1 | 
Cc1cc([C@H]2C[C@H]3CSC(N)=N[C@@]3(c3cc(C#N)ccc3F)CO2)on1 [Example 10, 3-[(4aR,6R,8aS)-2-Amino-6-(3-methyl-1,2-oxazol-5-yl)-4,4a,5,6-tetrahydropyrano[3,4-d][1,3]thiazin-8a(8H)-yl]-4-fluorobenzonitrile] | 64 | 10.9 | 
C[C@H]1C[C@H]2CSC(N)=N[C@@]2(c2cc(C#N)ccc2F)CO1 [Example 14, 3-[(4aR,6S,8aS)-2-Amino-6-methyl-4,4a,5,6-tetrahydropyrano[3,4-d][1,3]thiazin-8a(8H)-yl]-4-fluorobenzonitrile] | 967 | 49.6 | 
Cc1cc([C@H]2C[C@H]3[C@@H](C)SC(N)=N[C@@]3(c3cc(C#N)ccc3F)CO2)on1 [Example 17, 3-[(4R,4aR,6R,8aS)-2-Amino-4-methyl-6-(3-methyl-1,2-oxazol-5-yl)-4,4a,5,6-tetrahydropyrano[3,4-d][1,3]thiazin-8a(8H)-yl]-4-fluorobenzonitrile] | 82 | 11.4 | 
N#Cc1ccc(F)c([C@]23CO[C@@H](C4CC4)C[C@H]2CSC(N)=N3)c1 [Example 13, 3-[(4aR,6R,8aS)-2-Amino-6-cyclopropyl-4,4a,5,6-tetrahydropyrano[3,4-d][1,3]thiazin-8a(8H)-yl]-4-fluorobenzonitrile] | 342 | 47.6 | 
